For assay [1], the target named is T1, uPAR-expressing HEC-265 human endometrial adenocarcinoma cells (Homo sapiens, UniProt Q03405).
T1 construct: Cell surface uPAR-expressing HEC-265 human endometrial adenocarcinoma cells; host or cells: HEC-265
Put plainly: Competitive FACS binding assay. Conditions: pIC50 category of FACS binding. Summed up:
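Competitive displacement of a 10 nM biotinylated peptide from HEC-265 cells (1 h, 4 °C, PBS/1% BSA), detected via APC-streptavidin by flow cytometry. pIC50 from four-parameter logistic fit of median fluorescence versus concentration.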

Assay [2] concerns the target T2, human uPAR (uPAR-Fc) (Homo sapiens, UniProt Q03405).
T2 construct: comprising amino acids Leu23-Arg303 according to UniProt entry Q03405.1; purchased R&D Systems 10378-UK-100
Kind of assay: Surface plasmon resonance (SPR) assay, single cycle kinetics. Conditions: pKD category for uPAR SPR activity assay; uPAR-Fc on Protein A-Chip, single cycle kinetics, 25°C; read-out: pKD CAT (converted). It is filed as binding. Summed up: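 uPAR-Fc (Leu23-Arg303 extracellular domains, human IgG1 Fc) captured on Protein A chip to ~2000 RU; single-cycle kinetics at 25°C in HEPES running buffer pH 7.4 with 0.1% DMSO. KD from double-referenced sensorgrams fitted to 1:1 Langmuir model, reported as pKD.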
(SPR reads the build-up and loss of mass on a sensor chip optically.)

The source of these data is patent EP4610269A1, “UROKINASE PLASMINOGEN ACTIVATOR SURFACE RECEPTOR (UPAR) LIGANDS FOR DIAGNOSTIC OR THERAPEUTIC USE” (3B Pharmaceuticals GmbH, priority 2024, dated 2025).

*1 amine or outer side, *2 acyl side, *3 side chain or, on linkers, in order; H or OH if unused. Where a SMILES comes first, the peptide text is derived from it. Bridges are numbered along the chain shown (N, C = ends). [ ]: non-standard residue; d: D form. The star is where a group is joined. DOTA = O=C(O)CN1CCN(CC(=O)O)CCN(CC(=O)*)CCN(CC(=O)O)CC1; Pro(cis-4-F) = O=C(O)[C@@H]1C[C@H](F)CN1; Glutaryl = O=C(CCCC(=O)[*:2])[*:1]; Gly(cPent) = N[C@H](C(=O)O)C1CCCC1; Hyp = O=C(O)[C@@H]1C[C@@H](O)CN1; Pentanoyl(4-Me) = CC(C)CCC(=O)*; 2Thi = N[C@@H](Cc1cccs1)C(=O)O; Cit = NC(=O)NCCC[C@H](N)C(=O)O; Butoxycarbonyl = CCCCOC(=O)*; Nva = CCC[C@H](N)C(=O)O; Hexanoyl = CCCCCC(=O)*; Pentanoyl = CCCCC(=O)*; Bz = O=C(c1ccccc1)*; βAla = NCCC(=O)O Bounds are passed on as bounds.

T2 sequence (Q03405 23-303): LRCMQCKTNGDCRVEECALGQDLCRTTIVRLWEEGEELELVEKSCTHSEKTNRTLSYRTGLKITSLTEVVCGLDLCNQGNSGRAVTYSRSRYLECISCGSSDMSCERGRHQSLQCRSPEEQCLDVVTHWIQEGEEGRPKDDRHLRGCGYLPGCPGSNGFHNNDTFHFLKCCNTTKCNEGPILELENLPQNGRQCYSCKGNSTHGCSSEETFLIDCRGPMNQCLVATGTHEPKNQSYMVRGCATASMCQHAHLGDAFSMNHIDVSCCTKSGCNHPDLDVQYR
T1 sequence (Q03405 23-335): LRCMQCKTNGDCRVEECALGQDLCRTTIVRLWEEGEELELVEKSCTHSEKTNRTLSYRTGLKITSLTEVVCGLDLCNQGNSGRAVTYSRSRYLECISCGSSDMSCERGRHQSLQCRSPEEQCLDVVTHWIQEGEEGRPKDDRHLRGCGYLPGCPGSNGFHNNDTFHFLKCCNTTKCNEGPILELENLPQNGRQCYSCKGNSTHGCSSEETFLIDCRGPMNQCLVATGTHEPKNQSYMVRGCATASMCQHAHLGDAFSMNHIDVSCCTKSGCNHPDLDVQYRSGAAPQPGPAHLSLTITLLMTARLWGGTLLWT

As for `CC(C)CCC(=O)N[C@H]1CSSC[C@@H](C(N)=O)NC(=O)[C@H](CC(C)C)NC(=O)[C@H](C2CCCC2)NC(=O)[C@@H](C)NC(=O)[C@@H]2CCCN2C(=O)[C@H](Cc2ccccc2)NC(=O)[C@H](Cc2ccc(O)cc2)NC(=O)[C@H](CCC(N)=O)NC(=O)[C@H](CCCNC(N)=O)NC1=O` [UPAR-349, iHex-[Cys-Cit-Gln-Tyr-Phe-Pro-ala-Cpg-Leu-Cys]-NH2] ({Pentanoyl(4-Me)}-C[Cit]QYFP[dA][Gly(cPent)]LC-NH2; disulfide 1-10), the half-maximal inhibitory concentration (IC50) in assay [1] was ≤ 10 nM. In addition, the Kd in assay [2] is 1.58 to 10 nM.
On to `CCCCC(=O)N[C@H]1CSSC[C@@H](C(=O)NCCC(N)=O)NC(=O)[C@H](CCC)NC(=O)[C@H]([C@@H](C)CC)NC(=O)[C@@H]2C[C@@H](O)CN2C(=O)[C@@H]2CCCN2C(=O)[C@H](Cc2ccccc2)NC(=O)[C@H](Cc2ccc(O)cc2)NC(=O)[C@H](CCC(N)=O)NC(=O)[C@H](CCCNC(N)=O)NC1=O` [UPAR-353, Pent-[Cys-Cit-Gln-Tyr-Phe-Pro-Hyp-Ile-Nva-Cys]-Bal-NH2] (Pentanoyl-C[Cit]QYFP[Hyp]I[Nva]C[βAla]-NH2; disulfide 1-10), for which the IC50 in assay [1] was 12.6 to 31.6 nM. Also, in assay [2], the Kd is 1.58 to 10 nM.
As for `CC[C@H](C)[C@@H]1NC(=O)[C@@H](C)NC(=O)[C@@H]2C[C@H](F)CN2C(=O)[C@H](Cc2ccccc2)NC(=O)[C@H](Cc2ccc(O)cc2)NC(=O)[C@H](CCC(N)=O)NC(=O)[C@H](CCCNC(N)=O)NC(=O)[C@@H](NC(=O)CCC(C)C)CSSC[C@@H](C(N)=O)NC(=O)[C@H](CC(C)C)NC1=O` [UPAR-354, iHex-[Cys-Cit-Gln-Tyr-Phe-4Cfp-ala-Ile-Leu-Cys]-NH2] ({Pentanoyl(4-Me)}-C[Cit]QYF[Pro(cis-4-F)][dA]ILC-NH2; disulfide 1-10), the IC50 in assay [1] is ≤ 10 nM. The Kd in assay [2] is < 1.58 nM.
For the molecule `CCC[C@@H]1NC(=O)[C@H]([C@@H](C)CC)NC(=O)[C@@H]2C[C@@H](O)CN2C(=O)[C@@H]2CCCN2C(=O)[C@H](Cc2ccccc2)NC(=O)[C@H](Cc2ccc(O)cc2)NC(=O)[C@H](CCC(N)=O)NC(=O)[C@H](CCCNC(=N)N)NC(=O)[C@@H](NC(=O)c2ccccc2)CSSC[C@@H](C(N)=O)NC1=O` [UPAR-356, Bz-[Cys-Arg-Gln-Tyr-Phe-Pro-Hyp-Ile-Nva-Cys]-NH2] (Bz-CRQYFP[Hyp]I[Nva]C-NH2; disulfide 1-10), in assay [1], the IC50 is ≤ 10 nM. The Kd in assay [2] was < 1.58 nM.
With `CC[C@H](C)[C@@H]1NC(=O)[C@@H](CCCNC(=N)N)NC(=O)[C@@H]2CCCN2C(=O)[C@H](Cc2ccccc2)NC(=O)[C@H](Cc2ccc(O)cc2)NC(=O)[C@H](CCC(N)=O)NC(=O)[C@H](CCCNC(N)=O)NC(=O)[C@@H](NC(=O)CCC(C)C)CSSC[C@@H](C(N)=O)NC(=O)[C@H](CC(C)C)NC1=O` [UPAR-357, iHex-[Cys-Cit-Gln-Tyr-Phe-Pro-arg-Ile-Leu-Cys]-NH2] ({Pentanoyl(4-Me)}-C[Cit]QYFP[dR]ILC-NH2; disulfide 1-10), the IC50 in assay [1] was ≤ 10 nM. Besides, the Kd in assay [2] is 1.58 to 10 nM.
On to `CCCCOC(=O)N[C@H]1CSSC[C@@H](C(N)=O)NC(=O)[C@H](CCC)NC(=O)[C@H]([C@@H](C)CC)NC(=O)[C@@H]2C[C@@H](O)CN2C(=O)[C@@H]2C[C@H](F)CN2C(=O)[C@H](Cc2ccccc2)NC(=O)[C@H](Cc2ccc(O)cc2)NC(=O)[C@H](CCC(N)=O)NC(=O)[C@H]([C@@H](C)O)NC1=O` [UPAR-358, Butoc-[Cys-Thr-Gln-Tyr-Phe-4Cfp-Hyp-Ile-Nva-Cys]-NH2] (Butoxycarbonyl-CTQYF[Pro(cis-4-F)][Hyp]I[Nva]C-NH2; disulfide 1-10), for which the half-maximal inhibitory concentration (IC50) in assay [1] was ≤ 10 nM. For the same molecule, in assay [2], the Kd is < 1.58 nM.
With `CC[C@H](C)[C@@H]1NC(=O)[C@@H](C)NC(=O)[C@@H]2CCCN2C(=O)[C@H](Cc2ccccc2)NC(=O)[C@H](Cc2ccc(O)cc2)NC(=O)[C@H](CCC(N)=O)NC(=O)[C@H](CCCNC(N)=O)NC(=O)[C@@H](NC(=O)CCCC(=O)O)CSSC[C@@H](C(N)=O)NC(=O)[C@H](CC(C)C)NC1=O` [UPAR-359, Glutar-[Cys-Cit-Gln-Tyr-Phe-Pro-ala-Ile-Leu-Cys]-NH2] (Glutaryl-C[Cit]QYFP[dA]ILC-NH2; disulfide 1-10), in assay [1], the IC50 is ≥ 126 nM. In assay [2], the Kd was > 100 nM.
`CCCCC(=O)N[C@H]1CSSC[C@@H](C(N)=O)NC(=O)[C@H](CCC)NC(=O)[C@H]([C@@H](C)CC)NC(=O)[C@@H]2C[C@@H](O)CN2C(=O)[C@@H]2CCCN2C(=O)[C@H](Cc2cccs2)NC(=O)[C@H](Cc2ccc(O)cc2)NC(=O)[C@H](CCCCNC(=O)CN2CCN(CC(=O)O)CCN(CC(=O)O)CCN(CC(=O)O)CC2)NC(=O)[C@H](CCCNC(N)=O)NC1=O` [UPAR-360, Pent-[Cys-Cit-Lys(DOTA)-Tyr-Thi-Pro-Hyp-Ile-Nva-Cys]-NH2] (Pentanoyl-C[Cit]K(DOTA)Y[2Thi]P[Hyp]I[Nva]C-NH2; disulfide 1-10): in assay [1], the IC50 was ≤ 10 nM. For the same molecule, the Kd in assay [2] is < 1.58 nM.
In the same order, the values of `CCCCC(=O)N[C@H]1CSSC[C@@H](C(N)=O)NC(=O)[C@H](CCC)NC(=O)[C@H]([C@@H](C)CC)NC(=O)[C@@H]2C[C@@H](O)CN2C(=O)[C@@H]2CCCN2C(=O)[C@H](Cc2ccccc2)NC(=O)[C@H](Cc2ccc(O)cc2)NC(=O)[C@H](CCC(N)=O)NC(=O)[C@@H]2CCCN2C1=O` [UPAR-361, Pent-[Cys-Pro-Gln-Tyr-Phe-Pro-Hyp-Ile-Nva-Cys]-NH2] (Pentanoyl-CPQYFP[Hyp]I[Nva]C-NH2; disulfide 1-10) are ≤ 10 nM and < 1.58 nM.
`CCCCC(=O)N[C@H]1CSSC[C@@H](C(N)=O)NC(=O)[C@H](CC(C)C)NC(=O)[C@H]([C@@H](C)CC)NC(=O)[C@@H](C)NC(=O)[C@@H]2CCCN2C(=O)[C@H](Cc2ccccc2)NC(=O)[C@H](Cc2ccc(O)cc2)NC(=O)[C@H](CCC(N)=O)NC(=O)[C@H](CCCNC(N)=O)NC1=O` [UPAR-362, Pent-[Cys-Cit-Gln-Tyr-Phe-Pro-ala-Ile-Leu-Cys]-NH2] (Pentanoyl-C[Cit]QYFP[dA]ILC-NH2; disulfide 1-10): the IC50 in assay [1] was ≤ 10 nM. For the same molecule, in assay [2], the Kd is < 1.58 nM.
On the same counts, the results for `CCCCCC(=O)N[C@@H](CC(=O)O)C(=O)N[C@@H](CC(C)C)C(=O)N[C@H]1CSSC[C@@H](C(N)=O)NC(=O)[C@H](CC(C)C)NC(=O)[C@H]([C@@H](C)CC)NC(=O)[C@H](C)NC(=O)[C@@H]2CCCN2C(=O)[C@H](Cc2ccccc2)NC(=O)[C@H](Cc2ccc(O)cc2)NC(=O)[C@H](CCSC)NC(=O)[C@H](CCCNC(=N)N)NC1=O` [UPAR-363, Hex-Asp-Leu-[Cys-Arg-Met-Tyr-Phe-Pro-Ala-Ile-Leu-Cys]-NH2] (Hexanoyl-DLCRMYFPAILC-NH2; disulfide 3-12) are ≤ 10 nM and < 1.58 nM.
Consider `CCCCC(=O)N[C@H]1CSSC[C@@H](C(N)=O)NC(=O)[C@H](CCC)NC(=O)[C@H]([C@@H](C)CC)NC(=O)[C@@H]2C[C@@H](O)CN2C(=O)[C@@H]2C[C@H](F)CN2C(=O)[C@H](Cc2ccccc2)NC(=O)[C@H](Cc2ccc(O)cc2)NC(=O)[C@H](CCCCNC(=O)CN2CCN(CC(=O)O)CCN(CC(=O)O)CCN(CC(=O)O)CC2)NC(=O)[C@H](CCCNC(N)=O)NC1=O` [UPAR-365, Pent-[Cys-Cit-Lys(DOTA)-Tyr-Phe-4Cfp-Hyp-Ile-Nva-Cys]-NH2] (Pentanoyl-C[Cit]K(DOTA)YF[Pro(cis-4-F)][Hyp]I[Nva]C-NH2; disulfide 1-10), for which, in assay [1], the IC50 was ≤ 10 nM. For the same molecule, the Kd in assay [2] is < 1.58 nM.

A word on the IC50: it is the midpoint of a concentration-inhibition curve. A higher IC50 goes with weaker potency in that assay.
